One experiment concerns P. aeruginosa PA01 (wt). Kind of experiment: Antibiotic susceptibility testing (broth micro-dilution MIC), strain PA01. It is filed as cell-based, Pseudomonas aeruginosa. The conditions noted are these: for MIC: Pseudomonas aeruginosa. How it is done:
(§1) Experiments were performed on the BAC-SCREEN platform of the UMR-MD1, with a Freedom EVO 150 liquid handling system (Tecan, Lyon, France).
(§2) The same experiment was performed using chloramphenicol (4 mg/L) in combination with 3 (10 μM final concentration). […] These experiments were performed to study the effect of our compounds on the natural resistance of P. aeruginosa. […] Experiments were performed with the ß-lactams ceftazidime and ticarcillin and ciprofloxacin and amikacin.

In experiment [1] the test system is P. aeruginosa PT629 (Mex AB overproducer). Kind of experiment: Antibiotic susceptibility testing (broth micro-dilution MIC), strain PT629. It is filed as cell-based, Pseudomonas aeruginosa. The conditions noted are these: Pseudomonas aeruginosa. How it is done:
as §1
(§3) We concluded that compound 3 was the best compound and suitable for a more detailed study. The same experiment was performed using chloramphenicol (4 mg/L) in combination with 3 (10 μM final concentration). Amongst the 20 clinical isolates, the growth of 15 (75%) was impaired, while 5 (25%) were resistant (data not shown). These experiments were performed to study the effect of our compounds on the natural resistance of P. aeruginosa. In addition, we were wondering if compound 3 could also increase susceptibility to other antibiotic families including ß-Lactams, fluoroquinolones and aminoglycosides, that are representative of the main classes of anti-pseudomonal agents. Experiments were performed with the ß-lactams ceftazidime and ticarcillin and ciprofloxacin and amikacin. […] . […] To better characterize compound 3, we first searched for the minimum concentration of compound that allowed killing of bacteria by doxycycline, and PAßN was used as the reference molecule.

The test system of experiment [2] is P. aeruginosa PA01 ERY^R (Mex CD overproducer). Nature of the experiment: microbe, parasite or virus in culture. It is filed as cell-based, Pseudomonas aeruginosa. The conditions noted are these: Pseudomonas aeruginosa. How it is done: as §1, §2
In experiment [3] the test system is P. aeruginosa PA0-7H (Mex EF overproducer). Nature of the experiment: Antibiotic susceptibility testing (broth micro-dilution MIC), strain PA0-7H. It is filed as cell-based, Pseudomonas aeruginosa. The conditions noted are these: Pseudomonas aeruginosa. How it is done: as §1, §3
The subject of experiment [4] is P. aeruginosa CMZ091 (Mex XY overproducer). Nature of the experiment: Antibiotic susceptibility testing (broth micro-dilution MIC), strain CMZ091. The experiment is classed as cell-based, Pseudomonas aeruginosa. The settings on record: Pseudomonas aeruginosa. As for the experimental part:
as §1, §3

In experiment [5] the test system is clinical isolates of P. aeruginosa. Nature of the experiment: Doxycycline MIC of the clinical isolates (S1 Table). It is filed as cell-based. The conditions noted are these: Pseudomonas aeruginosa. As for the experimental part: The P. aeruginosa strains used in this study are described in Table 1. In addition, a series of 20 clinical isolates of P. aeruginosa obtained from the Hôpital d’Instruction des Armées Laveran, HIA-Laveran (Marseille, France) were also used in this study (S1 Table). Strains were stored at -80°C in 15% (v/v) glycerol for cryo-protection. Bacteria were routinely maintained on Mueller-Hinton (MH) agar plates and grown in cation-adjusted MH broth (MHBII) at 37°C.
as §1
Isolates Sampling location Sampling date Patient age Doxycycline MIC Main antibiotic resistance
AMK, LVX, OFX, TET, MIN, TGC, CHL, NET, CAR
PA2013-LAV17 Redon drain 15/12/2012 81 32 PIP, PIP/TZP, AZT, CAZ, TIC, TCC, FEP, FOS, TET,
TIC : ticarcillin, TCC : ticarcillin/clavulanic acid, FOS : fosfomycin, TET : tetracycline, MIN, minocycline, TCG, tigecycline, CAR : carbenicillin, PIP :
piperacillin, PIP/TZP : piperacillin/tazobactam, GEN : gentamycin, CAZ : ceftazidime, FEP : cefepime, TOB : tobramycin, IPM : imipenem, CIP :
ciprofloxacin, AMK : amikacin, LVX : levofloxacin, OFX : ofloxacin, NET : netilmicin, STR, streptomycin, MEM : meropenem.

The test system of another experiment is P. aeruginosa PA01. Nature of the experiment: Checkerboard assay with doxycycline. It is filed as cell-based, Pseudomonas aeruginosa. The conditions noted are these: Pseudomonas aeruginosa; PA01, checkerboard plate; read-out: Doxycycline MIC (alone). As for the experimental part: Serial two-fold dilutions of antimicrobial agents were mixed together in a microtiter plate. The range of concentration of each drug was twice the MIC, down to the eleventh serial two-fold dilutions below this amount. Doxycycline was serially diluted along the X-axis, and the polyamino-isoprenic compound or PAßN was diluted along the Y-axis as indicated. Each well was inoculated with a bacterial inoculum of 5 x 10^5 CFU/ml, and the plates were incubated at 37°C for 18 h under aerobic conditions. Each plate also contained a row and a column in which a serial dilution of polyamino-isoprenic compound or doxycycline, respectively, was present alone to determine the MIC. The FIC index was calculated as follows: FIC index = FIC A + FIC B, where FIC A is the MIC of drug A in the combination/MIC of drug A alone and FIC B is the MIC of drug B in the combination/MIC of drug B alone. The combination was considered synergistic when the FIC index is ≤0.5, and antagonistic when the FIC index is > 4 [26].

Setting [6] is: PA01, antibiotic alone (∅), S3 Table, read-out: MIC.
[7] abbreviates: read-out: Minimal Inhibitory Concentration.

The values below come from article PMC4859512, “Polyamino-Isoprenic Derivatives Block Intrinsic Resistance of P. aeruginosa to Doxycycline and Chloramphenicol In Vitro” (PLoS ONE, 2016).

Like-named read-outs stand apart in the source and are kept apart here.

For the compound `NCC[C@H](O)C(=O)N[C@@H]1C[C@H](N)[C@@H](O[C@H]2O[C@H](CN)[C@@H](O)[C@H](O)[C@H]2O)[C@H](O)[C@H]1O[C@H]1O[C@H](CO)[C@@H](O)[C@H](N)[C@H]1O` [Amikacin, amikacin], the MIC in the experiment with P. aeruginosa PA01 (wt) (setting [6]) amounted to 8 µg/mL; in experiment [1], 4 µg/mL; in experiment [2], 1 µg/mL; in experiment [3] it was 4 µg/mL; in experiment [4] it was 32 µg/mL.

Turning to `CC(C)(O/N=C(\C(=O)N[C@@H]1C(=O)N2C(C(=O)[O-])=C(C[n+]3ccccc3)CS[C@H]12)c1csc(N)n1)C(=O)O` [Ceftazidime, ceftazidime], the MIC was 2 µg/mL with P. aeruginosa PA01 (wt) (setting [6]), 8 µg/mL in experiment [1] and 1 µg/mL in experiment [3].

On to `O=C(O)c1cn(C2CC2)c2cc(N3CCNCC3)c(F)cc2c1=O` [Ciprofloxacin, ciprofloxacin], for which the figures for the MIC in experiment [1], in experiment [3] and in experiment [4] were 0.5 to 1 µg/mL, 4 µg/mL and 0.5 µg/mL, respectively.

With `CC1(C)S[C@@H]2[C@H](NC(=O)[C@H](C(=O)O)c3ccsc3)C(=O)N2[C@H]1C(=O)O` [Ticarcillin, ticarcillin], the MIC is 32 to 64 µg/mL in the experiment on P. aeruginosa PA01 (wt) (setting [6]); over 64 µg/mL in experiment [1]; 32 to 64 µg/mL in experiment [2]; 8 µg/mL in experiment [3]; 16 to 32 µg/mL in experiment [4].

Consider `C[C@H]1c2cccc(O)c2C(=O)C2=C(O)[C@]3(O)C(=O)C(C(N)=O)=C(O)[C@@H](N(C)C)[C@@H]3[C@@H](O)[C@@H]21` [doxycycline], for which the MIC is 32 µg/mL with P. aeruginosa PA01 (wt) (PA01, wt, mean of 3 independent experiments, read-out: Minimal Inhibitory Concentration); over 32 µg/mL in experiment [1] (setting [7]); 16 µg/mL in experiment [2] (setting [7]); over 32 µg/mL in experiment [3] (setting [7]); 32 µg/mL in experiment [5] (isolate PA2013-LAV01); 32 µg/mL in experiment [5] (isolate PA2013-LAV02). Further, the MIC in experiment [5] (isolate PA2013-LAV03) is over 32 µg/mL; in experiment [5] (isolate PA2013-LAV04), 32 µg/mL; in experiment [5] (isolate PA2013-LAV05) it was over 32 µg/mL; in experiment [5] (isolate PA2013-LAV06), 32 µg/mL; in experiment [5] (isolate PA2013-LAV07), 32 µg/mL; in experiment [5] (isolate PA2013-LAV08) it was 32 µg/mL. Further, the MIC in experiment [5] (isolate PA2013-LAV09) is over 32 µg/mL; in experiment [5] (isolate PA2013-LAV10), 32 µg/mL; in experiment [5] (isolate PA2013-LAV11) it was 32 µg/mL; in experiment [5] (isolate PA2013-LAV12), 32 µg/mL; in experiment [5] (isolate PA2013-LAV13) it was 32 µg/mL; in experiment [5] (isolate PA2013-LAV14), over 32 µg/mL. Besides, the MIC in experiment [5] (isolate PA2013-LAV15) is over 32 µg/mL; in experiment [5] (isolate PA2013-LAV16) it was 32 µg/mL; in experiment [5] (isolate PA2013-LAV17), 32 µg/mL; in experiment [5] (isolate PA2013-LAV18), over 32 µg/mL; in experiment [5] (isolate PA2013-LAV19), 32 µg/mL; in experiment [5] (isolate PA2013-LAV20) it was over 32 µg/mL. Moreover, the MIC with P. aeruginosa PA01 worked out at 32 µg/mL.

As for polymyxin-B, the “Minimal Inhibitory Concentration” value in the experiment with P. aeruginosa PA01 (wt) (PA01, wt) is under 10 µM.
